In PMC10174317, “^18F-labeled FGFR1 peptide: a new PET probe for subtype FGFR1 receptor imaging” (Frontiers in Oncology, 2023):
Where a SMILES comes first, the peptide text is derived from it. The star is where a group is joined. NOTA = O=C(O)CN1CCN(CC(=O)O)CCN(CC(=O)*)CC1; AEEA = NCCOCCOCC(=O)O

What was measured:
[1] = In vivo radiochemical stability, urine of xenograft nude mice (RP-HPLC); details: urine of xenograft nude mice 60 min after injection of 7.4 MBq; one peak at 5.7 min; fluorine-18 at 4 min
Experimental: For the in vivo radiochemical stability experiment, urine samples were obtained from xenograft nude mice 60 min after injection of 150 µl (7.4 MBq, 2.53 GBq/μmol) [^18F]F-FGFR1 and analyzed by RP-HPLC.

[2] = Micro-PET/CT biodistribution in RT-112 xenografts; assay type: in vivo, BALB/c nude mice; details: female, BALB/c nude, mouse, iv, total radioactivity, 11.1 MBq tail vein, micro-PET/CT ROI, mean ± SD; for tissue uptake at 0.5 h: 30 min post-injection; for tissue uptake at 1 h: 60 min post-injection; for tissue uptake at 2 h: 120 min post-injection
Experimental: (§1) All animal experiments were carried out in accordance with the Laboratory Animal Ethical Review of Animal Guidelines of China. BALB/c nude mice (sex, female; age, 4 weeks, body weight range, 19-21 g; China) were used for this study. Four cell lines (2*10^7 cells/nude mouse) were subcutaneously injected into the right forelimb to induce solid tumors. All xenograft nude mice were housed in laminar flow cabinets in a specific pathogen-free (SPF) environment and were provided ad libitum access to food and water at the Laboratory Animal Center of the Fourth Hospital of Hebei Medical University (China). The indication for micro-PET/CT imaging was xenografts with a tumor volume of 50-130 mm^3. All animal experiments strictly adhered to the Principles of the Laboratory Animal Ethical Committee of the Fourth Hospital Hebei Medical University (No. 2020016).
(§2) Xenograft mice (n=5) were fastly injected of 200 µl of [^18F]F-FGFR1 (11.1 MBq) through tail vein. For the in vivo blocking study, RT-112 (FGFR1-high expression) tumor-bearing mice (n = 5) were injected with a tracer that was mixed with 200-fold (1.58 mg) unlabeled peptide to saturate the receptors in the tumors. Mice were anesthetized via 3% isoflurane inhalation (RWD Life Science Inc. China) for induction and 2% isoflurane inhalation for maintenance. Micro-PET/CT imaging was performed on a micro-PET/SPECT/CT machine (NOVEL MEDICAL Equipment Ltd. China). Whole-body scans were performed 30, 60 and 120 min after tracer administration. The CT scanning parameters were 80 kV, 0.5 mA, 2000 ms/frames, and 360 frames; the images were reconstructed with a 512*512 matrix and a slice thickness of 0.18 mm. PET images were acquired with a 140*140 matrix and 10 min of total acquisition time. Reconstructed images were processed with the comprehensive image analysis software Pmod v4.201 (PMOD Technologies LLC. Switzerland). The biodistribution of the major organs (brain, heart, lung, liver, kidney, bone and muscle) and tumor were analyzed by manually outlining the regions of interest (ROIs) of the entire organs and tissue at each time point of the micro-PET/CT scan. The radioactivity accumulated in bone and muscle was measured in the limbs without xenograft tumors.

[3] = tested on: RT-112 cells (FGFR1-high expression); assay: Cellular uptake and blocking study; assay type: cell-based, human
Experimental: RT-112, A549, SNU-16 and Calu-3 cells were cultured at a density of 1*10^5 cells per well in 24-well plates the day before cellular uptake experiments. Cells were rinsed twice with 1000 µl of phosphate-buffered saline (PBS) (BI, Israel), followed by 1000 µl of growth medium. Then, 30 µl (111 KBq, 1.81-2.53 GBq/μmol) of [^18F]F-FGFR1 was added to each well, and the cells were incubated with the peptide for 15, 30, 60 and 120 min. At each cutoff time, 6 wells of supernatant were collected. The collected wells were washed twice with 1000 µl of PBS. Radioactivity counts were marked as Cout. […] After 500 µl of trypsin-EDTA digestion of the adherent cells and washed twice with 1000 µl of PBS, the collected cells were defined as Cin. Radioactivity was counted with an automatic γ counter. The formula for the cell uptake rate was as follows: Cin/(Cin + Cout).
To determine the specific binding of [^18F]F-FGFR1 with FGFR1 on the cell surface, 200-fold unlabeled peptide (220 µg) and 30 µl of [^18F]F-FGFR1 (111 KBq) were added to RT-112 cells at the same time. The supernatants were removed after 120 min of incubation. The subsequent steps of cell collection and radioactivity detection were performed as described above. The cell uptake rate was calculated by Cin/(Cin + Cout).

[4] = In vitro stability in fresh human serum (RP-HPLC); assay type: in vitro ADME; details: 37°C, 1, 2, 4 and 6 h
Experimental: The in vitro and in vivo stability of [^18F]F-FGFR1 was evaluated by RP-HPLC analysis. […] The radiochemical purity of the final compounds was determined by RP-HPLC.

[5] = Micro-PET/CT biodistribution in A549 xenografts; assay type: in vivo, BALB/c nude mice; details: female, BALB/c nude, mouse, iv, total radioactivity, 11.1 MBq tail vein, micro-PET/CT ROI, mean ± SD; for tissue uptake at 0.5 h: 30 min post-injection; for tissue uptake at 1 h: 60 min post-injection; for tissue uptake at 2 h: 120 min post-injection
Experimental: as §1, §2

[6] = bone, n=5, read-out: Biodistribution, Bone
[7] = brain, n=5, read-out: Biodistribution, Brain
[8] = heart, n=5, read-out: Biodistribution, Heart
[9] = kidney, n=5, read-out: Biodistribution, Kidney
[10] = liver, n=5, read-out: Biodistribution, Liver
[11] = lung, n=5, read-out: Biodistribution, Lung
[12] = muscle, n=5, read-out: Biodistribution, Muscle
[13] = tumor, n=5, read-out: Biodistribution, Tumor

## CC(C)C[C@H](NC(=O)[C@H](CO)NC(=O)[C@H](CCCCN)NC(=O)[C@H](Cc1c[nH]c2ccccc12)NC(=O)[C@H](CCC(=O)O)NC(=O)[C@H](C)NC(=O)[C@H](CCCCN)NC(=O)COCCOCCNC(=O)CN1CCN(CC(=O)O)CCN(CC(=O)O)CC1)C(=O)NCC(=O)N[C@@H](CCC(=O)O)C(=O)N[C@@H](CCC(=O)O)C(=O)N[C@@H](C)C(=O)N[C@@H](Cc1c[nH]c2ccccc12)C(=O)N[C@@H](Cc1c[nH]cn1)C(=O)N[C@@H](CO)C(=O)N[C@@H](CCCCN)C(=O)O [[^18F]F-FGFR1] ({NOTA-AEEA}-KAEWKSLGEEAWHSK-OH; N-terminus and C-terminus assumed)
[1]
  In vivo radiochemical stability (RP-HPLC of urine): no peak corresponded to fluorine-18
[2]; [6]
  tissue uptake at 0.5 h: 0.33 ± 0.1 %ID/g
  tissue uptake at 1 h: 0.35 ± 0.12 %ID/g
  tissue uptake at 2 h: 0.48 ± 0.23 %ID/g
[2]; [7]
  tissue uptake at 0.5 h: 0.66 ± 0.05 %ID/g
  tissue uptake at 1 h: 0.69 ± 0.03 %ID/g
  tissue uptake at 2 h: 0.03 ± 0.01 %ID/g
[2]; [8]
  tissue uptake at 0.5 h: 1.02 ± 0.11 %ID/g
  tissue uptake at 1 h: 0.75 ± 0.06 %ID/g
  tissue uptake at 2 h: 0.1 ± 0.03 %ID/g
[2]; [9]
  tissue uptake at 0.5 h: 9.44 ± 0.58 %ID/g
  tissue uptake at 1 h: 6.85 ± 0.77 %ID/g
  tissue uptake at 2 h: 19 ± 4.82 %ID/g
[2]; [10]
  tissue uptake at 0.5 h: 1.35 ± 0.23 %ID/g
  tissue uptake at 1 h: 1.43 ± 0.06 %ID/g
  tissue uptake at 2 h: 0.17 ± 0.08 %ID/g
[2]; [11]
  tissue uptake at 0.5 h: 0.75 ± 0.11 %ID/g
  tissue uptake at 1 h: 0.65 ± 0.09 %ID/g
  tissue uptake at 2 h: 0.14 ± 0.05 %ID/g
[2]; [12]
  tissue uptake at 0.5 h: 0.24 ± 0.05 %ID/g
  tissue uptake at 1 h: 0.28 ± 0.03 %ID/g
  tissue uptake at 2 h: 0.09 ± 0.02 %ID/g
[2]; [13]
  tissue uptake at 0.5 h: 3.84 ± 0.17 %ID/g
  tissue uptake at 1 h: 2.6 ± 0.1 %ID/g
  tissue uptake at 2 h: 1.35 ± 0.07 %ID/g
[3]; 15, 30, 60 and 120 min incubation, P < 0.001, n = 6
  Cellular uptake in RT-112 versus A549, SNU-16 and Calu-3 cells: consistently higher in RT-112 cell line
[3]; RT-112 cells, 111 KBq tracer with 200-fold excess unlabeled peptide (220 µg), 120 min, mean ± SD, n = 6
  Cell uptake rate Cin/(Cin + Cout), blocked: 0.24 ± 0.05
[3]; RT-112 cells, 111 KBq tracer, 120 min incubation, γ counter, mean ± SD, n = 6
  Cell uptake rate Cin/(Cin + Cout): 5.11 ± 0.63
[4]
  Radiochemical purity after incubation (in vitro stability): exceeded 90%
[5]; [6]
  tissue uptake at 0.5 h: 0.33 ± 0.1 %ID/g
  tissue uptake at 1 h: 0.35 ± 0.06 %ID/g
  tissue uptake at 2 h: 0.39 ± 0.02 %ID/g
[5]; [7]
  tissue uptake at 0.5 h: 0.61 ± 0.06 %ID/g
  tissue uptake at 1 h: 0.72 ± 0.13 %ID/g
  tissue uptake at 2 h: 0.64 ± 0.17 %ID/g
[5]; [8]
  tissue uptake at 0.5 h: 0.9 ± 0.09 %ID/g
  tissue uptake at 1 h: 0.88 ± 0.04 %ID/g
  tissue uptake at 2 h: 0.64 ± 0.07 %ID/g
[5]; [9]
  tissue uptake at 0.5 h: 9.35 ± 1.87 %ID/g
  tissue uptake at 1 h: 7.89 ± 1.06 %ID/g
  tissue uptake at 2 h: 4.46 ± 0.6 %ID/g
[5]; [10]
  tissue uptake at 0.5 h: 1.53 ± 0.11 %ID/g
  tissue uptake at 1 h: 1.52 ± 0.18 %ID/g
  tissue uptake at 2 h: 1.58 ± 0.08 %ID/g
[5]; [11]
  tissue uptake at 0.5 h: 0.69 ± 0.12 %ID/g
  tissue uptake at 1 h: 0.65 ± 0.04 %ID/g
  tissue uptake at 2 h: 0.53 ± 0.07 %ID/g
[5]; [12]
  tissue uptake at 0.5 h: 0.27 ± 0.03 %ID/g
  tissue uptake at 1 h: 0.27 ± 0.02 %ID/g
  tissue uptake at 2 h: 0.28 ± 0.02 %ID/g
[5]; [13]
  tissue uptake at 0.5 h: 0.87 ± 0.08 %ID/g
  tissue uptake at 1 h: 0.64 ± 0.08 %ID/g
  tissue uptake at 2 h: 0.53 ± 0.04 %ID/g
